The results in this text go back to US20240245770A1, “COMPOSITIONS AND METHODS FOR TREATING NEUROMUSCULAR DISORDERS” (The Regents of the University of California, priority 2019, published 2024).

Common to all, as to format: cell-based, human
Experiment [1] relates to PBMCs. In words: PBMC flow cytometry, percentages of immune subsets. The method, then:
Percentage of immune subsets in PBMCs in lab blood drawn. PBMC were isolated from peripheral blood of donors using ficoll-hypaque gradient centrifugation. The percentages of each cell subset in PBMCs were determined by flow cytometric analysis after staining with specific fluorescent conjugated antibodies directed to the cell surface receptors. No significant differences in the percentages of immune subsets between the donors (FIG. 1A and FIG. 1B).

Experiment [2] concerns OSCSCs. In words: NAC blocking of H2O2 mediated cell death in OSCSCs. The following applies: NAC 20 mM, 24 hours, FIG. 68.
Experiment [3] concerns Oral squamous carcinoma cells (OSCCs) and Oral squamous stem cell carcinoma (OSCSCs). In words: NAC blocking of CDDP mediated cell death (PI staining, flow cytometry). To be noted: NAC 20 mM, 24 hours, OSCCs and OSCSCs. The protocol: Testing and selection of the best NAC to be used in ALS treatment. […] Afterwards OSCCs and OSCSCs were detached, and the viability of cells was determined after PI staining followed by flow cytometric analysis. In this figure Forward and Side Scatters (Fs/ss) were assessed since decrease in the Fs/ss is seen in cells undergoing cell death.
Testing and selection of the best NAC to be used in ALS treatment. […] Afterwards OSCCs and OSCSCs were detached, and the viability of cells was determined after PI staining followed by flow cytometric analysis. In this figure the percentage of PI stained cells were assessed.

For experiment [4], the system named is Dental Pulp Stromal Cells (DPSCs). In words: NAC blocking of H2O2 mediated cell death in DPSCs. The following applies: NAC 20 mM, 24 hours, FIG. 67. The method, then: Testing and selection of the best NAC to be used in ALS treatment. […] Afterwards DPSCs were detached, and the viability of cells was determined after PI staining followed by flow cytometric analysis. In this figure the decrease in FS/ss and the percentage of PI stained cells were assessed.

[5] abbreviates: ALS patient H107 JC, Post-NAC, Pre-young plasma.
Where [6] appears, read: ALS patient H110 RS, Post-NAC infusion.

As for `CC(=O)N[C@@H](CS)C(=O)O` [NAC, N-Acetyl-Cysteine], in experiment [1] (setting [5]), the “CD4, percentage of immune subset” value is 31.4%; the “CD8, percentage of immune subset” value was 15.1%; the “CD14, percentage of immune subset” value is given as 15.0%; the “CD19, percentage of immune subset” value is 24.6%. Moreover, in experiment [1] (setting [5]), the “NK, percentage of immune subset” value was 11.5%; the “NKT, percentage of immune subset” value worked out at 3.58%; the “total of immune subsets” value was found to be 97.6%. In experiment [1] (setting [6]), the “CD4, percentage of immune subset” value is listed as 27.6%; the “CD8, percentage of immune subset” value is recorded as 20.4%; the “CD14, percentage of immune subset” value is 27.1%; the “CD19, percentage of immune subset” value was 10.0%. Further, in experiment [1] (setting [6]), the “NK, percentage of immune subset” value is 15.3% and the “total of immune subsets” value was 100.4%. Also, the “H2O2 mediated cell death (Fs/ss and PI positive cells)” value in experiment [2] is on record as “blocks H2O2 mediated Cell death in OSCSCs”. The “CDDP mediated cell death, Forward and Side Scatters (Fs/ss)” value in experiment [3] (FIG. 65) is listed as “blocks CDDP mediated Cell death in Oral tumors”. Further, the “CDDP mediated cell death, percentage of PI stained cells” value in experiment [3] (FIG. 66) is “blocks CDDP mediated Cell death in Oral tumors”. In addition, the “H2O2 mediated cell death (Fs/ss and PI positive cells)” value in experiment [4] is “blocks H2O2 mediated Cell death in DPSCs”.
